Measurements as given in patent publication US10040788B2, “1,3,4-thiadiazole compounds and their use in treating cancer” (AstraZeneca AB, priority 2014, dated 2018).

Key:
NCI-H3122 xenograft = assay: Mouse Xenograft Model, monotherapy (NCI-H3122); format: in vivo; conditions: Female Harlan Nude mice, NCI-H3122 s.c., 50 mg/kg once daily peroral for 17 days
Experimental: Female Harlan Nude mice were transplanted s.c. with human NSCLC NCI-H3122 cells to determine the in-vivo anti-tumour activity of GLS inhibitors. 5×10^6 cells in 50% matrigel (BD Bioscience) were injected s.c. on the left flank of the animals. Animals were randomised into groups of 10-15 when tumours reached a volume of ˜200-300 mm^3 and treatment commenced. […] Tumours were measured twice weekly by calliper and volume of tumours calculated using elliptical formula (π/6×width×width×length). Statistical significance was evaluated using a one tailed, t-test. Example 2 was formulated in a 1% Polysorbate 80 and pH adjusted with 1M HCL to a final pH concentration of pH3.5. Data is presented as mean tumour volume with calculated mean standard error bars.

NCI-H1703 xenograft = assay: Mouse Xenograft Model, combination therapy (NCI-H1703); format: in vivo; conditions: Male Scid mice, NCI-H1703 s.c.
Experimental: Male Scid mice were transplanted s.c. with human NSCLC NCI-H1703 cells (ATCC-CRL-5889) to determine the in-vivo anti-tumour activity of GLS inhibitors. 1×10^7 cells in 50% matrigel (BD Bioscience) were injected s.c. on the left flank of the animals.
Animals were randomised into groups of 10-12 when tumours reached a volume of ˜200-300 mm^3 and treatment commenced. […] Tumours were measured twice weekly by calliper and volume of tumours calculated using elliptical formula (π/6×width×width×length). Statistical significance was evaluated using a one tailed, t-test. Taxotere® (Sanofi) was formulated in a physiological saline. Example 2 was formulated in a 1% Polysorbate 80 and pH adjusted with 1M HCL to a final pH concentration of pH3.5. Data is presented as mean tumour volume with calculated mean standard error bars.

NCI-H1703 cells = assay: GLS Cell Proliferation Assay (NCI-H1703); format: cell-based, human; conditions: Homo sapiens, 120 h; NCI-H1703 cells, 5 days incubation; geometric mean where repeated; read-out: Assay c) GLS Cell Proliferation Assay
GLS1 = GLS1 (Homo sapiens (Human), UniProt O94925); assay: GLS Enzyme Potency Assay (Glutamate Oxidase/AmplexRed coupled assay); format: biochemical; conditions: 6His tagged GLS protein (amino acids 63-669); geometric mean where repeated
Text: The following assays were used to measure the effects of the compounds of the present invention: a) GLS Enzyme Potency Assay; b) GLS Cell Potency Assay; c) GLS Cell Proliferation Assay; and d) Mouse Xenograft Model. During the description of the assays, generally: • i. The following abbreviations have been used: CO2=Carbon dioxide; DMEM=Dulbecco's Modified Eagle Medium; DMSO=Dimethyl sulphoxide; EDTA=Ethylenediaminetetraacetic acid; EGTA=Ethylene glycol tetraacetic acid; FCS=Foetal calf serum; h=Hour(s); NBS=Non-binding surface; SDS=Sodium dodecyl sulphate; r.t.=room temperature; TRIS=Tris(Hydroxymethyl)aminomethane. • ii. IC50 values were calculated using a smart fitting model in Genedata. […] Assay a): GLS Enzyme Potency Assay
A Glutamate Oxidase/AmplexRed coupled assay was used to measure the ability of compounds to bind to and inhibit the activity of GLS1 in vitro. […] GLS1 was diluted to 2× working concentration and incubated at r.t. to allow the tetrameric/dimeric forms to reach steady state. Assay measurements were performed in buffer comprising 50 mM TRIS pH 7.8, 100 mM NaPO4, pH 7.8, 0.001% v/v Tween20. […] DMSO concentration was maintained at 2% by back filling with DMSO solution. […] 3 μL of 100 mM glutamine diluted in assay buffer was then added and the reaction incubated at r.t. for 60 minutes. […] An artefact version of the assay where the 6His tagged GLS protein and glutamine were replaced with assay buffer was also used to rule out non specific effects on the assay components.

cellular GLS activity = cellular GLS activity (Homo sapiens (Human), UniProt O94925); assay: GLS Cell Potency Assay (PC3 coupled assay measuring cellular glutamate depletion); format: cell-based; conditions: PC3 cells, 6 h incubation, cellular glutamate depletion; geometric mean where repeated; read-out: Assay b) GLS Cell Potency Assay IC50
Text: The following assays were used to measure the effects of the compounds of the present invention: a) GLS Enzyme Potency Assay; b) GLS Cell Potency Assay; c) GLS Cell Proliferation Assay; and d) Mouse Xenograft Model. During the description of the assays, generally: • i. The following abbreviations have been used: CO2=Carbon dioxide; DMEM=Dulbecco's Modified Eagle Medium; DMSO=Dimethyl sulphoxide; EDTA=Ethylenediaminetetraacetic acid; EGTA=Ethylene glycol tetraacetic acid; FCS=Foetal calf serum; h=Hour(s); NBS=Non-binding surface; SDS=Sodium dodecyl sulphate; r.t.=room temperature; TRIS=Tris(Hydroxymethyl)aminomethane. • ii. […]
Compounds were assessed for their potential to inhibit cellular GLS activity by use of a PC3 coupled assay measuring cellular glutamate depletion. […] DMSO concentration was maintained at 0.3% by back filling with DMSO solution. PC3 cells were grown in phenol free DMEM, 10% dialyzed FCS, 2 mM glutamine and following dispersal by trypsinisation were plated at 5.6×10^3 cells per well in 40 μl of growth medium directly into the 384 well assay plates containing dispensed compound. After incubation for 6 h at 37° C., 5% CO2 growth media was aspirated and cells lysed in 15 μl of buffer containing 10 mM TRIS pH7.4, 100 mM NaCl, 1 mM EDTA, 1 mM EGTA, 1 mM NaF, 20 mM Na4P2O7, 2 mM Na3VO4, 1% Triton X-100, 10% glycerol, 0.1% SDS and 0.5% deoxycholate.

Chain of GLS1 (O94925 63-669): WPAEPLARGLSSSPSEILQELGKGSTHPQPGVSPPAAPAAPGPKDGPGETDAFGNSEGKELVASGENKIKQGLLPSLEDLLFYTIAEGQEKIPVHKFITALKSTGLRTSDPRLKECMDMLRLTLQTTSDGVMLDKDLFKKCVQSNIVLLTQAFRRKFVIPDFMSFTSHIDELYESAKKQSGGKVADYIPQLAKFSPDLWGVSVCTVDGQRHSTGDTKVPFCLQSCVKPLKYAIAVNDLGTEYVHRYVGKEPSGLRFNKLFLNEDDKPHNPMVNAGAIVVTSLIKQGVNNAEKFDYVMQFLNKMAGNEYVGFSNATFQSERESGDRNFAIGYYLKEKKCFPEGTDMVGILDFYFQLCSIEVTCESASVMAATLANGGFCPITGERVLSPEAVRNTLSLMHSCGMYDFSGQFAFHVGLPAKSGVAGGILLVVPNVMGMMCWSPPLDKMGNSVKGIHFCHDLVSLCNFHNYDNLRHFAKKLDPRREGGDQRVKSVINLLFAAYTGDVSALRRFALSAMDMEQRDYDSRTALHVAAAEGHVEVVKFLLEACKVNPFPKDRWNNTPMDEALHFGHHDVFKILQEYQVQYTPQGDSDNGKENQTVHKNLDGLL
Chain of cellular GLS activity (O94925 55-669): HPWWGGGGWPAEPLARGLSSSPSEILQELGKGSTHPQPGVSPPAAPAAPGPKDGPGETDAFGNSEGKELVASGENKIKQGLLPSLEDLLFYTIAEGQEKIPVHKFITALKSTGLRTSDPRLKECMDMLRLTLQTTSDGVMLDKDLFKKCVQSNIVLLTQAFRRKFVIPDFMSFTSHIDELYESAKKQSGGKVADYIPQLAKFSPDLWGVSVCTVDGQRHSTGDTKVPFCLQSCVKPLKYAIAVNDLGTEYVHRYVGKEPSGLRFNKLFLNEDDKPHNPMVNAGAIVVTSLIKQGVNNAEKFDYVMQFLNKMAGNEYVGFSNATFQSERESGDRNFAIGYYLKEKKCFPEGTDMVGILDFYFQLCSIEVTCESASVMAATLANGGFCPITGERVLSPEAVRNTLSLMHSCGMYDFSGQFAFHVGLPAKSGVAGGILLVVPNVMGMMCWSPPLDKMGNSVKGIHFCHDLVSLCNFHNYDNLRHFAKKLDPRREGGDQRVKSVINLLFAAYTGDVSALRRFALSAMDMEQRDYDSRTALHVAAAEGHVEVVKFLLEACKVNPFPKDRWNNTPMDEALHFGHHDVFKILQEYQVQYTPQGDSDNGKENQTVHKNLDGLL

CO[C@H](C(=O)Nc1nnc(N[C@@H]2CCN(c3cccnn3)C2)s1)c1ccccc1 [Example 2(a), (2S)-2-Methoxy-2-phenyl-N-[5-[[(3R)-1-pyridazin-3-ylpyrrolidin-3-yl]amino]-1,3,4-thiadiazol-2-yl]acetamide]
Tumour growth (mean tumour volume), FIG. 2 (NCI-H3122 xenograft): inhibition of growth in-vivo | Tumour growth (mean tumour volume), FIG. 3 (NCI-H1703 xenograft; 100 mg/kg once daily peroral for 16 days in combination with once weekly i.v. Taxotere, compared to Taxotere monotherapy): slight regression | Tumour growth (mean tumour volume), FIG. 3 (NCI-H1703 xenograft; 100 mg/kg once daily peroral for 16 days, monotherapy): inhibition of growth in-vivo | IC50 (NCI-H1703 cells): 4.85 nM

CCO[C@@H](C(=O)Nc1nnc(N[C@@H]2CCN(c3cccnn3)C2)s1)c1ccccc1 [Example 10(b), (2R)-2-Ethoxy-2-phenyl-N-[5-[[(3R)-1-pyridazin-3-ylpyrrolidin-3-yl]amino]-1,3,4-thiadiazol-2-yl]acetamide]
IC50 (GLS1): 110 nM | IC50 (cellular GLS activity): 13 nM | IC50 (NCI-H1703 cells): 234 nM

COc1ccc([C@H](OC)C(=O)Nc2nnc(N[C@@H]3CCN(c4cccnn4)C3)s2)cc1 [Example 11, (2S)-2-Methoxy-2-(4-methoxyphenyl)-N-[5-[[(3R)-1-pyridazin-3-ylpyrrolidin-3-yl]amino]-1,3,4-thiadiazol-2-yl]acetamide]
IC50 (GLS1): 31 nM | IC50 (cellular GLS activity): 0.401 nM | IC50 (NCI-H1703 cells): 10.8 nM

CCO[C@H](C(=O)Nc1nnc(N[C@@H]2CCN(c3cccnn3)C2)s1)c1ccc(F)cc1 [Example 13(a), (2S)-2-Ethoxy-2-(4-fluorophenyl)-N-[5-[[(3R)-1-pyridazin-3-ylpyrrolidin-3-yl]amino]-1,3,4-thiadiazol-2-yl]acetamide]
IC50 (GLS1): 27 nM | IC50 (cellular GLS activity): 0.96 nM | IC50 (NCI-H1703 cells): 18.3 nM

CCO[C@@H](C(=O)Nc1nnc(N[C@@H]2CCN(c3cccnn3)C2)s1)c1ccc(F)cc1 [Example 13(b), (2R)-2-Ethoxy-2-(4-fluorophenyl)-N-[5-[[(3R)-1-pyridazin-3-ylpyrrolidin-3-yl]amino]-1,3,4-thiadiazol-2-yl]acetamide]
IC50 (GLS1): 170 nM | IC50 (cellular GLS activity): 14 nM | IC50 (NCI-H1703 cells): 560 nM

COc1cc([C@H](OC)C(=O)Nc2nnc(N[C@@H]3CCN(c4cccnn4)C3)s2)ccc1F [Example 14(a), (2S)-2-(4-Fluoro-3-methoxy-phenyl)-2-methoxy-N-[5-[[(3R)-1-pyridazin-3-ylpyrrolidin-3-yl]amino]-1,3,4-thiadiazol-2-yl]acetamide]
IC50 (GLS1): 25.5 nM | IC50 (cellular GLS activity): 0.78 nM | IC50 (NCI-H1703 cells): 15.1 nM

COc1cc([C@@H](OC)C(=O)Nc2nnc(N[C@@H]3CCN(c4cccnn4)C3)s2)ccc1F [Example 14(b), (2R)-2-(4-Fluoro-3-methoxy-phenyl)-2-methoxy-N-[5-[[(3R)-1-pyridazin-3-ylpyrrolidin-3-yl]amino]-1,3,4-thiadiazol-2-yl]acetamide]
IC50 (GLS1): 168 nM | IC50 (cellular GLS activity): 65 nM | IC50 (NCI-H1703 cells): 518 nM

COc1ccc([C@H](OC)C(=O)Nc2nnc(N[C@@H]3CCN(c4nccnn4)C3)s2)cc1 [Example 24, (2S)-2-methoxy-2-(4-methoxyphenyl)-N-[5-[[(3R)-1-(1,2,4-triazin-3-yl)pyrrolidin-3-yl]amino]-1,3,4-thiadiazol-2-yl]acetamide]
IC50 (GLS1): 74.7 nM | IC50 (cellular GLS activity): 4.58 nM | IC50 (NCI-H1703 cells): 118 nM
